Laboratory results taken from patent US7576177B2, “Hsp peptides and analogs for modulation of immune responses via antigen presenting cells” (Andromeda Biotech Ltd., priority 2002, dated 2009).

Tests used:
[1] = test system: BALB/c DO.11.10 bone marrow cells cultured for dendritic cells, cocultured with DO.11.10 T cells; assay: Education of mouse dendritic cells and stimulation of T-cells, cytokine content of supernatant; format: cell-based; details: for IFN secretion of T cells / IL-4 secretion of T cells / IL-10 secretion of T cells / IL-12 secretion of T cells: 0.3 nM Ova peptide
Method: Whelan et al. (J. Immunol 164, 6453-6460, 2000) addressed the problem in mice by an experiment in which mouse bone marrow cells were grown for 6 days in culture with GM-CSF to give immature dendritic cells. These dendritic cells were then incubated overnight with LPS (known to drive cells to DC1) or with a nematode antigen. The reason for the choice of nematode antigen was that injection of this antigen in vivo gives rise to a Th2 response in animals. After this so-called “education” of the dendritic cells, they were washed and subsequently incubated with naive T cells in the presence of antigenic stimulus. The experiment was possible because of the use of transgenic mice in which all the T cells respond to the same peptide (OVA323-339) which absolves the system from any question of bias of the T cell response at the level of the T cells. Any bias should be a consequence of the “education” of the dendritic cells. After three days of incubation the cytokine responses produced by the T cells, were measured by ELISA. […] In contrast, nematode antigen incubation gave rise to more IL-4 (Th2) than did controls while the LPS incubation inhibited the IL4 response. Therefore, the nematode antigen was said to drive cells to DC2. A similar method was used for testing the compounds of the present invention: • 1. Bone marrow cells were extracted from the leg bones of DO.11.10 mice transgenic for the TcR. All cells from these mice respond to the OVA peptide ([…]). • 2. Bone marrow cells were plated at 10^6 cells/ml in 100 mm diameter tissue culture petri dishes in Iscove's medium supplemented with 10% FCS, […], 1 mM sodium pyruvate, penicillin/streptomycin (according to manufacturer's recommendations), non-essential amino acids, 50 μM β-mercaptoethanol and 10 ng/ml mGM-CSF. • 3. After 4 days, the medium was carefully removed and replaced with fresh medium • 4. After 6 days, the non-adherent cells were harvested and used as immature dendritic cells • 5. The immature dendritic cells are plated at 1×10^6 cells/ml, 1 ml/well in 24 well plates in the above medium with various reagents added at various concentrations and incubated overnight. This is the stage in which the dendritic cells are “educated” • 6. The next day the cells were harvested and washed 3 times then resuspended at 5×10^4 cells/ml in 1 ml of the above medium but without the addition of GM-CSF to be cocultured with T cells • 7. […] 5×10^5 T cells were cultured with the dendritic cells from step 6 in the presence of various concentrations of the OVA peptide (0, 0.3 nM, 3 nM and 30 nM). • 9. After 3 days PMA (50 ng/ml) and ionomycin (500 ng/ml) were added to further stimulate the cells. • 10. The next day the cell supernatants were collected and assayed for cytokine content (Interferon γ, IL4, IL-10 and IL-12).
The compound was tested for stimulation of DO.11.10 bone marrow cells according to the assay described above (Production and education of mouse dendritic cells and stimulation of T-cells).
BALB/c DO.11.10 bone marrow cells were cultured for dendritic cells and then stimulated with LPS 1 μg/ml, LPS 10 μg/ml, hsp60 3 μg/ml, hsp60 10 μg/ml, p277 5 μg/ml and p277 50 μg/ml. The cells were then transferred to wells with T cells from fresh BALB/c DO.11.10 mice and stimulated with OVA peptide at different concentrations (0, 0.3 nM, 3 nM, 30 nM). Supernatant was collected after 48 hours for assay. 30 μl was taken for IFN, 40 μl for IL4 and IL-10 and 50 μl for IL-12 assays. The results are presented in the following tables, as amount of cytokine (pg/ml), and in FIG. 1.

J774 cells = details: 48 hours
Method: Nitric oxide is a proinflammatory mediator produced by macrophages. The classic stimulus for nitric oxide production is lipopolysaccharide (LPS). Other molecules derived from pathogens such as hsp60 also induce macrophages to produce nitric oxide. Nitric oxide is usually produced by cells in conjunction with TNFα, IL-1 and IL-6.
The effect of p277(Val^6-Val^11) was tested on the production of nitric oxide from a macrophage cell line both the direct effect and the effect of p277(Val^6-Val^11) on the nitric oxide produced in response to hsp60.
The assay method is described in full in WO 01/43691. Briefly, J774 cells (2×10^5 cells/assay) were incubated for 48 hours with LPS, hsp60 or p277(Val^6-Val^11) or in inhibition assay, the cells were incubated with hsp60 at various concentrations in the presence or absence of 20 μg/ml p277(Val^6-Val^11). After 48 hours the supernatant was collected and tested for nitric oxide. The test for nitric oxide is performed by mixing an equal volume of the cell supernatant with Griess reagent and measuring the resultant color at 550 nm.

[2] = dendritic cells educated with 5 μg/ml
[3] = dendritic cells educated with 50 μg/ml

How did the “IL-4 produced by T cells after exposure of dendritic cells (in words)” value ([1]; compared with non-exposed dendritic cells) turn out when “VLGGGVALLRVIPALDSLTPANED [p277(Val^6-Val^11)]” was run?
The value was “more IL-4 than non-exposed dendritic cells”.

What about the “IFN secretion of T cells” value [1, 2] of the same sequence?
The value was 722.22 pg/mL.

And the “IL-4 secretion of T cells” value [1, 2]?
The value was 36.96 pg/mL.

And the “IL-10 secretion of T cells” value [1, 2]?
The value was 32.53 pg/mL.

And the “IL-12 secretion of T cells” value [1, 2]?
Its value is 177.50 pg/mL.

What about the “IFN secretion of T cells” value [1, 3] of the same sequence?
The value was 373.89 pg/mL.

What about the “IL-4 secretion of T cells” value [1, 3] of the same sequence?
The value was 82.29 pg/mL.

What about the “IL-10 secretion of T cells” value [1, 3] of the same sequence?
Its value is 27.15 pg/mL.

What about the “IL-12 secretion of T cells” value [1, 3] of the same sequence?
Its value is 82.50 pg/mL.

What about the “direct stimulation of nitric oxide production” value (J774 cells) of the same sequence?
The value was “Under no conditions did the peptide stimulate nitric oxide production”.

And the “inhibition of hsp60 induced nitric oxide” value (J774 cells; hsp60 at various concentrations with 20 μg/ml peptide)?
Its value is “Neither did it inhibit the hsp60 induced nitric oxide produced”.
